{
  "source": "patent US12552753B2",
  "about": "“Methods and compositions for targeting Tregs using CCR8 inhibitors” (Nanjing Immunophage Biomedical Co., Ltd., priority 2020, dated 2026)",
  "note": "Where a name gives a salt, the structure may show the parent alone.",
  "data": [
    {"target": "CCR8 (Homo sapiens, UniProt P51685)", "sequence (P51685 whole entry, the tested form may be a part)": "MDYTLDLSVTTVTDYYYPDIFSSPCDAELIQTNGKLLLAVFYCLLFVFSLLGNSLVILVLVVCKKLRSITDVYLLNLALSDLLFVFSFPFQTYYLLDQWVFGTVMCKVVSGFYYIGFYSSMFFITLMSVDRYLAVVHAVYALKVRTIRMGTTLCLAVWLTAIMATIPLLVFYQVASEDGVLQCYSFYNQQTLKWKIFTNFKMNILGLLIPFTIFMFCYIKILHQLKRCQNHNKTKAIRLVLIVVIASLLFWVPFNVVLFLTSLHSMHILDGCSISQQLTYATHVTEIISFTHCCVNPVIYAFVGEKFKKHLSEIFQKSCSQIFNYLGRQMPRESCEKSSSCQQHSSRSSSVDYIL", "test": "Tango assay (Tango-CCR8-Gal4-CHO-K1 cells, CCL1-stimulated, ONE-Glo luminescence)", "conditions": "Tango Assay IC50, Inhibition of CCR8 Tango cell in vitro", "units": {"IC50": "nM"}, "values": [
      {"molecule": "Cc1ccccc1C(=O)Nc1ccc(S(=O)(=O)Nc2ccc3c(c2)N(C(=O)CN(C)C)CC3)c2ccccc12", "note": "[Compound 36, N-(4-(N-(1-(2-(dimethylamino)acetyl)indolin-6-yl)sulfamoyl)naphthalen-1-yl)-2-methylbenzamide]", "IC50": "> 10000"},
      {"molecule": "Cc1ccccc1C(=O)Nc1ccc(S(=O)(=O)Nc2ccc3c(c2)CN(C(=O)CN(C)C)C3)c2ccccc12", "note": "[Compound 37, N-(4-(N-(2-(2-(dimethylamino)acetyl)isoindolin-5-yl)sulfamoyl)naphthalen-1-yl)-2-methylbenzamide]", "IC50": "> 10000"},
      {"molecule": "Cc1ccccc1C(=O)Nc1ccc(S(=O)(=O)N(C)c2ccc3c(c2)N(C(=O)CN(C)C)CC3)c2ccccc12", "note": "[Compound 38, N-(4-(N-(1-(2-(dimethylamino)acetyl)indolin-6-yl)-N-methylsulfamoyl)naph-thalen-1-yl)-2-methylbenzamide]", "IC50": 1680},
      {"molecule": "COc1cc2c(cc1NS(=O)(=O)c1ccc(NC(=O)c3ccccc3C)c3ccccc13)N(C(C)=O)CC2", "note": "[Compound 39, N-(4-(N-(1-acetyl-5-methoxyindolin-6-yl)sulfamoyl)naphthalen-1-yl)-2-methylbenzamide]", "IC50": "> 10000"},
      {"molecule": "CC(=O)N1CC(C)(C)c2ccc(NS(=O)(=O)c3ccc(NC(=O)c4ccccc4C)c4ccccc34)cc21", "note": "[Compound 40, N-(4-(N-(1-acetyl-3,3-dimethylindolin-6-yl)sulfamoyl)naphthalen-1-yl)-2-methylbenzamide]", "IC50": "> 10000"},
      {"molecule": "Cc1ccccc1C(=O)Nc1ccc(S(=O)(=O)Nc2ccc3c(c2)CN(C(=O)CN(C)C)CC3)c2ccccc12", "note": "[Compound 41, N-(4-(N-(2-(2-(dimethylamino)acetyl)-1,2,3,4-tetrahydroisoquinolin-7-yl)sulfamoyl)naphthalen-1-yl)-2-methylbenzamide]", "IC50": "> 10000"},
      {"molecule": "Cc1ccccc1C(=O)Nc1ccc(S(=O)(=O)Nc2ccc3c(c2)CCN(C(=O)CN(C)C)C3)c2ccccc12", "note": "[Compound 42, N-(4-(N-(2-(2-(dimethylamino)acetyl)-1,2,3,4-tetrahydroisoquinolin-6-yl)sulfamoyl)naphthalen-1-yl)-2-methylbenzamide]", "IC50": "> 10000"},
      {"molecule": "CCCC(=O)NC12CC(NS(=O)(=O)c3ccc(NC(=O)c4ccccc4C)c4ccccc34)(C1)C2", "note": "[Compound 43, N-(4-(N-(3-butyramidobicyclo[1.1.1]pentan-1-yl)sulfamoyl)naphthalen-1-yl)-2-methylbenzamide]", "IC50": "> 10000"},
      {"molecule": "CN1CCN(C(=O)N2CCC(NS(=O)(=O)c3ccc4[nH]c(-c5ccccc5)nc4c3)CC2)CC1", "note": "[Compound 44, N-(1-(4-methylpiperazine-1-carbonyl)piperidin-4-yl)-2-phenyl-1H-m benzo[d]imidazole-5-sulfonamide]", "IC50": "> 10000"},
      {"molecule": "Cc1ccccc1C(=O)Nc1ccc(S(=O)(=O)NC2CCC(C(=O)N(C)C)CC2)c2ccccc12", "note": "(stereo not shown) [Compound 45, N-(4-(N-(4-(dimethylcarbamoyl)cy-clohexyl)sulfamoyl)naph-thalen-1-yl)-2-methylbenzamide]", "IC50": 2700},
      {"molecule": "Cc1ccccc1C(=O)Nc1ccc(S(=O)(=O)NC2CCC(C(=O)N3CCN(C)CC3)CC2)c2ccccc12", "note": "(stereo not shown) [Compound 46, 2-methyl-N-(4-(N-(4-(4-methylpiperazine-1-carbonyl)cyclohexyl)sul-famoyl)naphthalen-1-yl)benzamide]", "IC50": "> 10000"},
      {"molecule": "Cc1ccccc1C(=O)Nc1ccc(S(=O)(=O)N[C@@H]2CCN3C(=O)CC[C@@H]3C2)c2ccccc12", "note": "[Compound 47, 2-methyl-N-(4-(N-((7R,8aR)-3-oxooctahydroindolizin-7-yl)sulfamoyl)naphthalen-1-yl)benzamide]", "IC50": 23},
      {"molecule": "Cc1ccccc1C(=O)Nc1ccc(S(=O)(=O)NC(CO)C2CCCCC2)c2ccccc12", "note": "(stereo not shown) [Compound 48, N-(4-(N-(1-cyclohexyl-2-hydroxyethyl)sulfamoyl)naphthalen-1-yl)-2-methylbenzamide]", "IC50": 170},
      {"molecule": "COC(=O)[C@@H](NS(=O)(=O)c1ccc(NC(=O)c2ccccc2C)c2ccccc12)C1CCCCC1", "note": "[Compound 49, (S)-methyl 2-cyclohexyl-2-(4-(2-methylbenzamido)naph-thalene-1-sulfonamido)acetate]", "IC50": 520},
      {"molecule": "COC(=O)[C@H](NS(=O)(=O)c1ccc(NC(=O)c2ccccc2C)c2ccccc12)C1CCCCC1", "note": "[Compound 50, (R)-methyl 2-cyclohexyl-2-(4-(2-methylbenzamido)naph-thalene-1-sulfonamido)acetate]", "IC50": 12},
      {"molecule": "COc1ccccc1C(C)NS(=O)(=O)c1ccc(NC(=O)c2ccccc2C)c2ccccc12", "note": "(stereo not shown) [Compound 51, N-(4-(N-(1-(2-methoxyphenyl)ethyl)sul-famoyl)naphthalen-1-yl)-2-methylbenzamide]", "IC50": "> 10000"},
      {"molecule": "Cc1ccccc1C(=O)Nc1ccc(S(=O)(=O)NC2CCc3n[nH]cc3C2)c2ccccc12", "note": "(stereo not shown) [Compound 52, 2-methyl-N-(4-(N-(4,5,6,7-tetrahydro-2H-indazol-5-yl)sulfamoyl)naphthalen-1-yl)benzamide]", "IC50": "> 10000"},
      {"molecule": "Cc1ccccc1C(=O)Nc1ccc(S(=O)(=O)NC2CCOc3ccccc32)cc1", "note": "(stereo not shown) [Compound 53, N-(4-(N-(chroman-4-yl)sulfamoyl)phenyl)-2-methylbenzamide]", "IC50": "> 10000"},
      {"molecule": "Cc1ccccc1C(=O)Nc1ccc(S(=O)(=O)NC(C)c2cccc(C(=O)O)c2)cc1", "note": "(stereo not shown) [Compound 54, 3-(1-(4-(2-methylbenzamido)phe-nylsulfonamido)ethyl) benzoic acid]", "IC50": "> 10000"},
      {"molecule": "Cc1ccccc1C(=O)Nc1ccc(S(=O)(=O)NC(C)c2nccs2)c2ccccc12", "note": "(stereo not shown) [Compound 56, 2-methyl-N-(4-(N-(1-(thiazol-2-yl)ethyl)sulfamoyl)naph-thalen-1-yl)benzamide]", "IC50": 2790},
      {"molecule": "Cc1ccccc1C(=O)Nc1ccc(S(=O)(=O)NC(C)C2CCCCC2)c2ccccc12", "note": "(stereo not shown) [Compound 57, N-(4-(N-(1-cyclohexylethyl)sulfamo-yl)naphthalen-1-yl)-2-methylbenzamide]", "IC50": 3},
      {"molecule": "Cc1ccccc1C(=O)Nc1ccc(S(=O)(=O)N[C@@H](C)C2CCCCC2)c2ccccc12", "note": "[Compound 58, (S)-N-(4-(N-(1-cyclohexylethyl)sulfamo-yl)naphthalen-1-yl)-2-methylbenzamide]", "IC50": 12},
      {"molecule": "Cc1ccccc1C(=O)Nc1ccc(S(=O)(=O)N[C@H](C)C2CCCCC2)c2ccccc12", "note": "[Compound 59, (R)-N-(4-(N-(1-cyclohexylethyl)sulfamo-yl)naphthalen-1-yl)-2-methylbenzamide]", "IC50": 1.6},
      {"molecule": "Cc1ccccc1C(=O)Nc1ccc(S(=O)(=O)NC(C)C2CCN(C(=O)OC(C)(C)C)CC2)c2ccccc12", "note": "(stereo not shown) [Compound 60, tert-butyl 4-(1-(4-(2-methylbenzamido)naph-thalene-1-sulfonamido)ethyl)piper-idine-1-carboxylate]", "IC50": 160},
      {"molecule": "CC(=O)N1CCC(C(C)NS(=O)(=O)c2ccc(NC(=O)c3ccccc3C)c3ccccc23)CC1", "note": "(stereo not shown) [Compound 62, N-(4-(N-(1-(1-acetylpiperidin-4-yl)ethyl)sulfamoyl)naph-thalen-1-yl)-2-methylbenzamide]", "IC50": 705},
      {"molecule": "Cc1ccccc1C(=O)Nc1ccc(S(=O)(=O)NC23CC(C2)C3)c2ccccc12", "note": "[Compound 63, N-(4-(N-(bicyclo[1.1.1]pentan-1-yl)sulfamoyl)naphthalen-1-yl)-2-methylbenzamide]", "IC50": "> 10000"},
      {"molecule": "CCN(C)C(=O)C12CC(NS(=O)(=O)c3ccc(NC(=O)c4ccccc4C)c4ccccc34)(C1)C2", "note": "[Compound 64, N-ethyl-N-methyl-3-(4-(2-methylbenzamido)naph-thalene-1-sulfonamido)bicyclo [1.1.1]pentane-1-carboxamide]", "IC50": "> 10000"},
      {"molecule": "Cc1ccccc1C(=O)Nc1ccc(S(=O)(=O)NC(C)C2CCN(C(=O)OC(C)(C)C)C2)c2ccccc12", "note": "(stereo not shown) [Compound 65, tert-butyl 3-(1-(4-(2-methylbenzamido)naph-thalene-1-sulfonamido)ethyl)pyr-rolidine-1-carboxylate]", "IC50": 1100},
      {"molecule": "Cc1ccccc1C(=O)Nc1ccc(S(=O)(=O)NC(C)C2CCCCN2)c2ccccc12", "note": "(stereo not shown) [Compound 69A, 2-methyl-N-(4-(N-(1-(piperidin-2-yl)ethyl)sulfamoyl)naph-thalen-1-yl)benzamide]", "IC50": "> 10000"},
      {"molecule": "Cc1ccccc1C(=O)Nc1ccc(S(=O)(=O)NC(C)c2cccc(NC(=O)OC(C)(C)C)c2)c2ccccc12", "note": "(stereo not shown) [Compound 71, tert-butyl (3-(1-(4-(2-methylbenzamido)naph-thalene-1-sulfonamido)ethyl)phe-nyl)carbamate]", "IC50": 147},
      {"molecule": "Cc1ccccc1C(=O)Nc1ccc(S(=O)(=O)NC(C)c2cccc(N)c2)c2ccccc12", "note": "(stereo not shown) [Compound 72A, N-(4-(N-(1-(3-aminophenyl)ethyl)sul-famoyl)naphthalen-1-yl)-2-methylbenzamide hydrochloride]", "IC50": 1140},
      {"molecule": "COc1cccc(C(C)NS(=O)(=O)c2ccc(NC(=O)c3ccccc3C)c3ccccc23)c1", "note": "(stereo not shown) [Compound 73, N-(4-(N-(1-(3-methoxyphenyl)ethyl)sul-famoyl)naphthalen-1-yl)-2-methylbenzamide]", "IC50": 764},
      {"molecule": "Cc1ccccc1C(=O)Nc1ccc(S(=O)(=O)NC(C)CN2CCC(C)CC2)c2ccccc12", "note": "(stereo not shown) [Compound 74, 2-methyl-N-(4-(N-(1-(4-methylpiperidin-1-yl)propan-2-yl)sulfamoyl)naphthalen-1-yl)benzamide]", "IC50": 647},
      {"molecule": "Cc1ccccc1C(=O)Nc1ccc(S(=O)(=O)NC(C)CC2CCCCC2)c2ccccc12", "note": "(stereo not shown) [Compound 75, N-(4-(N-(1-cyclohexylpropan-2-yl)sulfamoyl)naphthalen-1-yl)-2-methylbenzamide]", "IC50": 7.6},
      {"molecule": "Cc1ccccc1C(=O)Nc1ccc(S(=O)(=O)NC(C)C2CCCCCC2)c2ccccc12", "note": "(stereo not shown) [Compound 76, N-(4-(N-(1-cycloheptylethyl)sulfamo-yl)naphthalen-1-yl)-2-methylbenzamide]", "IC50": 1.8}
    ]},
    {"target": "CCR8 (Homo sapiens, UniProt P51685)", "test": "Tango assay (Tango-CCR8-Gal4-CHO-K1 cells, CCL1-stimulated, ONE-Glo luminescence)", "conditions": "read-out: Tango Assay IC50, Inhibition of CCR8 Tango cell in vitro", "units": {"IC50": "nM"}, "values": [
      {"molecule": "Cc1ccccc1C(=O)Nc1ccc(S(=O)(=O)NC(C)C2CCNC2)c2ccccc12", "note": "(stereo not shown) [Compound 66, 2-methyl-N-(4-(N-(1-(pyrrolidin-3-yl)ethyl)sulfamoyl)naph-thalen-1-yl)benzamide]", "IC50": 85},
      {"molecule": "Cc1ccccc1C(=O)Nc1ccc(S(=O)(=O)NC(C)C2CCCCN2)c2ccccc12", "note": "(stereo not shown) [Compound 69B, 2-methyl-N-(4-(N-(1-(piperidin-2-yl)ethyl)sulfamoyl)naph-thalen-1-yl)benzamide]", "IC50": "> 10000"}
    ]}
  ]
}
